Results as given in patent US8859584B2, “TRPV1 antagonists” (AbbVie Inc., priority 2011, dated 2014).

What was measured:
[1] = target: T1, human TRPV1 (Homo sapiens, UniProt Q8NER1); assay: Acid Activation Assay (pH 5.0, FLIPR intracellular Ca2+, recombinant HEK293 cells); type: cell-based; details: percentage of maximal pH 5.0-induced response remaining; HEK293 hTRPV1; max concentration 37.5 μM
T1 construct: expressed in transfected cells
Summary of the method: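 HEK293 cells stably expressing recombinant hTRPV1 were loaded with calcium dye for 90-120 min at 25° C and pre-treated with compound for 3 min before a pH 5.0 (DPBS/MES) challenge. Peak FLIPR fluorescence over baseline is given as percentage of the maximal pH 5.0-induced response.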

[2] = target: T1, human TRPV1; assay: Capsaicin Activation Assay (FLIPR intracellular Ca2+, recombinant HEK293 cells); type: cell-based; details: recombinant HEK293 cells expressing hTRPV1; 50 nM capsaicin; read-out: human TRPV1 capsaicin IC50

T1 sequence (Q8NER1 whole entry): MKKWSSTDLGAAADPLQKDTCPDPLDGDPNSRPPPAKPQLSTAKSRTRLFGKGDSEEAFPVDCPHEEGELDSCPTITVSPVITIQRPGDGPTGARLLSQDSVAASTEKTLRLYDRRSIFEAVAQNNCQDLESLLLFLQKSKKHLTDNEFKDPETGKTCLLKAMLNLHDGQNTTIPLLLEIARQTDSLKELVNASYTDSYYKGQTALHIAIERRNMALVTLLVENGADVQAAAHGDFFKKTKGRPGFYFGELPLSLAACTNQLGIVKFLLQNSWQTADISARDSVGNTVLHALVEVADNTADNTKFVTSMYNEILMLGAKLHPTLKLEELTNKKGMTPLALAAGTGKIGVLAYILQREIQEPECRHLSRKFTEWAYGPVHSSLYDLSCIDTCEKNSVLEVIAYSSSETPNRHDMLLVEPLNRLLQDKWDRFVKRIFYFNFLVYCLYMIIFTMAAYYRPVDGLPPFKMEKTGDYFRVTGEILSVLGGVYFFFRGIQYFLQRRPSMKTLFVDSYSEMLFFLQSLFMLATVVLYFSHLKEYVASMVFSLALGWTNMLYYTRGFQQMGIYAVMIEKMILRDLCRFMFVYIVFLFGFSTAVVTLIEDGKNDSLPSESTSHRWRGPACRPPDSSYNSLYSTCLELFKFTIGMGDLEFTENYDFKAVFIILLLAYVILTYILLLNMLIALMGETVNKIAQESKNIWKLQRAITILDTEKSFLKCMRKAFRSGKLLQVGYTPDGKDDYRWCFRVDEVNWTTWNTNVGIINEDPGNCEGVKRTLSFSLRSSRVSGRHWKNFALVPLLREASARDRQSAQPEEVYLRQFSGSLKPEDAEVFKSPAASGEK

human TRPV1 H+ (max % remain) [1] [%] | IC50 [2] [nM] | Compound
4 | 210 | O=C(Nc1c(F)ccc2c1C[C@@H](O)C2)N[C@@H]1CC(CF)(CF)Oc2cc(Cl)ccc21 [Example 176, 1-[(4R)-7-chloro-2,2-bis(fluoromethyl)-3,4-dihydro-2H-chromen-4-yl]-3-[(2S)-5-fluoro-2-hydroxy-2,3-dihydro-1H-inden-4-yl]urea]
70 | 850 | O=C(Nc1ccc(F)c2c1C[C@@H](O)C2)N[C@@H]1CCOc2cc(OC(F)(F)F)ccc21 [Example 168, 1-[(2R)-7-fluoro-2-hydroxy-2,3-dihydro-1H-inden-4-yl]-3-[(4R)-7-(trifluoromethoxy)-3,4-dihydro-2H-chromen-4-yl]urea]
2 | 440 | CC1(C)C[C@@H](NC(=O)Nc2ccc(F)c3c2C[C@H](O)C3)c2ccc(F)c(Cl)c2O1 [Example 147, 1-[(4R)-8-chloro-7-fluoro-2,2-dimethyl-3,4-dihydro-2H-chromen-4-yl]-3-[(2S)-7-fluoro-2-hydroxy-2,3-dihydro-1H-inden-4-yl]urea]
2 | 760 | CC1(C)C[C@@H](NC(=O)Nc2ccc(F)c3c2C[C@H](O)C3)c2ccc(F)c(F)c2O1 [Example 153, 1-[(4R)-7,8-difluoro-2,2-dimethyl-3,4-dihydro-2H-chromen-4-yl]-3-[(2S)-7-fluoro-2-hydroxy-2,3-dihydro-1H-inden-4-yl]urea]
49 | 2600 | CC1(C)C[C@@H](NC(=O)Nc2ccc(F)c3c2C[C@@H](O)C3)c2cc(F)ccc2O1 [Example 165, 1-[(4R)-6-fluoro-2,2-dimethyl-3,4-dihydro-2H-chromen-4-yl]-3-[(2R)-7-fluoro-2-hydroxy-2,3-dihydro-1H-inden-4-yl]urea]
7 | 3200 | CC1(C)C[C@@H](NC(=O)Nc2ccc(F)c3c2C[C@H](O)C3)c2ccccc2O1 [Example 145, 1-[(4R)-2,2-dimethyl-3,4-dihydro-2H-chromen-4-yl]-3-[(2S)-7-fluoro-2-hydroxy-2,3-dihydro-1H-inden-4-yl]urea]
59 | 1800 | CC1(C)C[C@@H](NC(=O)Nc2ccc(F)c3c2C[C@@H](O)C3)c2cccc(F)c2O1 [Example 157, 1-[(4R)-8-fluoro-2,2-dimethyl-3,4-dihydro-2H-chromen-4-yl]-3-[(2R)-7-fluoro-2-hydroxy-2,3-dihydro-1H-inden-4-yl]urea]
19 | 42 | O=C(Nc1ccc(F)c2c1CC(O)C2)NC1CCc2cc(C(F)(F)F)ccc21 (stereo not drawn) [Example 155, 1-(7-fluoro-2-hydroxy-2,3-dihydro-1H-inden-4-yl)-3-[5-(trifluoromethyl)-2,3-dihydro-1H-inden-1-yl]urea]
2 | 58 | CC1(C)C[C@@H](NC(=O)Nc2ccc(F)c3c2C[C@H](O)C3)c2ccc(C(F)(F)F)cc2O1 [Example 140, 1-[(4R)-2,2-dimethyl-7-(trifluoromethyl)-3,4-dihydro-2H-chromen-4-yl]-3-[(2S)-7-fluoro-2-hydroxy-2,3-dihydro-1H-inden-4-yl]urea]

Second part, the compound before the results:

Compound | human TRPV1 H+ (max % remain) [1] [%] | IC50 [2] [nM]
CC1(C)C[C@H](NC(=O)Nc2cccc3c2C[C@@H](O)C3)c2cc(F)ccc2O1 [Example 103, 1-[(4S)-6-fluoro-2,2-dimethyl-3,4-dihydro-2H-chromen-4-yl]-3-[(2S)-2-hydroxy-2,3-dihydro-1H-inden-4-yl]urea] | 99 | 28000
O=C(Nc1cccc2c1C[C@H](O)C2)N[C@@H]1CCc2cc(F)ccc21 [Example 92, 1-[(1R)-5-fluoro-2,3-dihydro-1H-inden-1-yl]-3-[(2R)-2-hydroxy-2,3-dihydro-1H-inden-4-yl]urea] | 60 | 270
CC1(C)C[C@@H](NC(=O)Nc2cccc3c2C[C@H](O)C3)c2ccccc2O1 [Example 17, 1-[(4R)-2,2-dimethyl-3,4-dihydro-2H-chromen-4-yl]-3-[(2R)-2-hydroxy-2,3-dihydro-1H-inden-4-yl]urea] | 82 | 240
O=C(Nc1cccc2c1C[C@H](O)C2)N[C@@H]1CC2(CCCC2)Oc2ccccc21 [Example 128, 1-[(4R)-3,4-dihydrospiro[chromene-2,1′-cyclopentan]-4-yl]-3-[(2R)-2-hydroxy-2,3-dihydro-1H-inden-4-yl]urea] | 75 | 410
O=C(Nc1cccc2c1C[C@H](O)C2)N[C@@H]1CCc2cc(Cl)ccc21 [Example 39, 1-[(1R)-5-chloro-2,3-dihydro-1H-inden-1-yl]-3-[(2R)-2-hydroxy-2,3-dihydro-1H-inden-4-yl]urea] | 46 | 25
O=C(Nc1cccc2c1CC(O)C2)NC1CC(c2cccc(Cl)c2)Oc2ccccc21 (stereo not drawn) [Example 110, 1-[2-(3-chlorophenyl)-3,4-dihydro-2H-chromen-4-yl]-3-(2-hydroxy-2,3-dihydro-1H-inden-4-yl)urea] | 59 | 240
CCC1(CC)C[C@@H](NC(=O)Nc2cccc3c2C[C@H](O)C3)c2cc(F)ccc2O1 [Example 58, 1-[(4R)-2,2-diethyl-6-fluoro-3,4-dihydro-2H-chromen-4-yl]-3-[(2R)-2-hydroxy-2,3-dihydro-1H-inden-4-yl]urea] | 67 | 24
CC1(C)C[C@@H](NC(=O)Nc2cccc3c2C[C@H](O)C3)c2cccc(F)c2O1 [Example 46, 1-[(4R)-8-fluoro-2,2-dimethyl-3,4-dihydro-2H-chromen-4-yl]-3-[(2R)-2-hydroxy-2,3-dihydro-1H-inden-4-yl]urea] | 87 | 430
O=C(Nc1cccc2c1CC(O)C2)NC1CC(c2ccc(Cl)cc2)Oc2ccccc21 (stereo not drawn) [Example 117, 1-[2-(4-chlorophenyl)-3,4-dihydro-2H-chromen-4-yl]-3-(2-hydroxy-2,3-dihydro-1H-inden-4-yl)urea] | 45 | 130
O=C(Nc1cccc2c1C[C@H](O)C2)N[C@@H]1CC2(CCC2)Oc2ccccc21 [Example 22, 1-[(4R)-3,4-dihydrospiro[chromene-2,1′-cyclobutan]-4-yl]-3-[(2R)-2-hydroxy-2,3-dihydro-1H-inden-4-yl]urea] | 73 | 78
1-(5-chloro-2,3-dihydro-1H-inden-1-yl)-3-(7-fluoro-2-hydroxy-2,3-dihydro-1H-inden-4-yl)urea [Example 174] | 29 | 420
O=C(Nc1cccc2c1CC(O)C2)NC1c2ccccc2CC1Cc1ccc(Cl)c(Cl)c1 (stereo not drawn) [Example 124, 1-[2-(3,4-dichlorobenzyl)-2,3-dihydro-1H-inden-1-yl]-3-(2-hydroxy-2,3-dihydro-1H-inden-4-yl)urea] | 63 | > 38000
CCC1(CC)C[C@@H](NC(=O)Nc2cccc3c2C[C@H](O)C3)c2ccc(F)cc2O1 [Example 52, 1-[(4R)-2,2-diethyl-7-fluoro-3,4-dihydro-2H-chromen-4-yl]-3-[(2R)-2-hydroxy-2,3-dihydro-1H-inden-4-yl]urea] | 73 | 13
C[C@]1(CF)C[C@@H](NC(=O)Nc2c(F)ccc3c2C[C@@H](O)C3)c2ccc(Cl)cc2O1 [Example 100, 1-[(2R,4R)-7-chloro-2-(fluoromethyl)-2-methyl-3,4-dihydro-2H-chromen-4-yl]-3-[(2S)-5-fluoro-2-hydroxy-2,3-dihydro-1H-inden-4-yl]urea] | 30 | 33
1-[(4R)-2,2-dimethyl-8-(trifluoromethoxy)-3,4-dihydro-2H-chromen-4-yl]-3-[(2R)-7-fluoro-2-hydroxy-2,3-dihydro-1H-inden-4-yl]urea [Example 172] | 47 | 32
CCC1(CC)C[C@@H](NC(=O)Nc2cccc3c2C[C@H](O)C3)c2cccc(F)c2O1 [Example 48, 1-[(4R)-2,2-diethyl-8-fluoro-3,4-dihydro-2H-chromen-4-yl]-3-[(2R)-2-hydroxy-2,3-dihydro-1H-inden-4-yl]urea] | 89 | 24
O=C(Nc1cccc2c1CC(O)C2)NC1CC(c2ccc(C(F)(F)F)cc2)Oc2ccccc21 (stereo not drawn) [Example 121, 1-(2-hydroxy-2,3-dihydro-1H-inden-4-yl)-3-{2-[4-(trifluoromethyl)phenyl]-3,4-dihydro-2H-chromen-4-yl}urea] | 57 | 680
C[C@@]1(CF)C[C@@H](NC(=O)Nc2cccc3c2C[C@H](O)C3)c2ccc(Cl)cc2O1 [Example 16, 1-[(2S,4R)-7-chloro-2-(fluoromethyl)-2-methyl-3,4-dihydro-2H-chromen-4-yl]-3-[(2R)-2-hydroxy-2,3-dihydro-1H-inden-4-yl]urea] | 57 | 37
O=C(Nc1cccc2c1C[C@@H](O)C2)N[C@@H]1CC(CF)(CF)Oc2c(Cl)cccc21 [Example 75, 1-[(4R)-8-chloro-2,2-bis(fluoromethyl)-3,4-dihydro-2H-chromen-4-yl]-3-[(2S)-2-hydroxy-2,3-dihydro-1H-inden-4-yl]urea] | 40 | 120
O=C(Nc1cccc2c1CC(O)C2)NC1c2ccccc2OCC1c1ccccc1 (stereo not drawn) [Example 108, 1-(2-hydroxy-2,3-dihydro-1H-inden-4-yl)-3-(3-phenyl-3,4-dihydro-2H-chromen-4-yl)urea] | 97 | 8000
O=C(Nc1cccc2c1CC(O)C2)NC1c2ccccc2OCC1c1ccc(Cl)cc1 (stereo not drawn) [Example 115, 1-[3-(4-chlorophenyl)-3,4-dihydro-2H-chromen-4-yl]-3-(2-hydroxy-2,3-dihydro-1H-inden-4-yl)urea] | 94 | 1100
